Assay results as given in the supplement of paper PMC10307832.

Columns and labels:
Test in all cases: relative viability (nuclei count vs DMSO), 5 days (fraction); higher = more cells survive
IPA-3 + Alpelisib = compound: C1=CC=C2C(=C1)C=CC(=C2SSC3=C(C=CC4=CC=CC=C43)O)O [IPA-3] + Cc1nc(NC(=O)N2CCC[C@H]2C(N)=O)sc1-c1ccnc(C(C)(C)C(F)(F)F)c1 [Alpelisib] (partner 2 µM)
Procedure, shortened: (§1)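 Relative viability divides the nuclei count in treated wells by that in vehicle wells. Lung cancer cell lines were seeded in 1536-well plates, dosed by pin tool the next day, and fixed and stained after 5 days in one step with final 0.05% Triton X-100, 1% formaldehyde and 1 ug/ml Hoechst. Dosing was a single drug or a fixed anchor-drug dose plus five library-drug doses (not always all listed) in √10 steps, and values are medians of duplicate plates imaged at 4×.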

Doramapimod + Crizotinib = compound: Cc1ccc(-n2nc(C(C)(C)C)cc2NC(=O)Nc2ccc(OCCN3CCOCC3)c3ccccc23)cc1 [Doramapimod] + C[C@@H](Oc1cc(-c2cnn(C3CCNCC3)c2)cnc1N)c1c(Cl)ccc(F)c1Cl [Crizotinib] (partner 1 µM)
Procedure, shortened: as §1

Doramapimod + Alpelisib = compound: Cc1ccc(-n2nc(C(C)(C)C)cc2NC(=O)Nc2ccc(OCCN3CCOCC3)c3ccccc23)cc1 [Doramapimod] + Cc1nc(NC(=O)N2CCC[C@H]2C(N)=O)sc1-c1ccnc(C(C)(C)C(F)(F)F)c1 [Alpelisib] (partner 2 µM)
Procedure, shortened: as §1

RAF265 + Alpelisib = compound: Cn1c(Nc2ccc(C(F)(F)F)cc2)nc2cc(Oc3ccnc(-c4ncc(C(F)(F)F)[nH]4)c3)ccc21 [RAF265] + Cc1nc(NC(=O)N2CCC[C@H]2C(N)=O)sc1-c1ccnc(C(C)(C)C(F)(F)F)c1 [Alpelisib] (partner 2 µM)
Procedure, shortened: as §1

Cell Line | relative viability (IPA-3 + Alpelisib; first compound 0.2 µM) | relative viability (IPA-3 + Alpelisib; first compound 0.6325 µM) | relative viability (IPA-3 + Alpelisib; first compound 2 µM) | relative viability (IPA-3 + Alpelisib; first compound 6.325 µM) | relative viability (IPA-3 + Alpelisib; first compound 20 µM) | relative viability (Doramapimod + Crizotinib; first compound 0.02 µM) | relative viability (Doramapimod + Crizotinib; first compound 0.06325 µM) | relative viability (Doramapimod + Crizotinib; first compound 0.2 µM) | relative viability (Doramapimod + Crizotinib; first compound 0.6325 µM) | relative viability (Doramapimod + Crizotinib; first compound 2 µM) | relative viability (Doramapimod + Alpelisib; first compound 0.02 µM) | relative viability (Doramapimod + Alpelisib; first compound 0.06325 µM) | relative viability (Doramapimod + Alpelisib; first compound 0.2 µM) | relative viability (Doramapimod + Alpelisib; first compound 0.6325 µM) | relative viability (Doramapimod + Alpelisib; first compound 2 µM) | relative viability (RAF265 + Alpelisib; first compound 0.01 µM) | relative viability (RAF265 + Alpelisib; first compound 0.03162 µM) | relative viability (RAF265 + Alpelisib; first compound 0.1 µM) | relative viability (RAF265 + Alpelisib; first compound 0.3162 µM) | relative viability (RAF265 + Alpelisib; first compound 1 µM)
NCI-H322M | 0.867 | 0.823 | 0.759 | 0.0386 | 0.901 | 0.899 | 0.949 | 1.02 | 1.02 | 0.924 | 0.774 | 0.734 | 0.785 | 0.801 | 0.933 | 0.811 | 0.784 | 0.544 | 0.28 | 0.265
NCI-H358 | 1.01 | 0.843 | 0.791 | 0.803 | 1.19 | 0.531 | 0.614 | 0.552 | 0.702 | 0.509 | 0.885 | 0.653 | 0.768 | 0.918 | 0.799 | 0.984 | 0.6 | 0.477 | 0.382 | 0.282
NCI-H441 | 0.942 |  | 0.628 | 0.668 | 0.782 | 0.96 | 0.512 | 0.67 | 0.741 | 0.549 | 0.694 |  | 0.813 | 0.704 | 0.779 | 0.793 |  | 0.429 | 0.392 | 0.311
NCI-H460 | 0.711 | 0.409 | 0.46 | 0.479 | 0.426 | 0.807 | 0.806 | 0.986 | 0.846 | 0.794 | 0.446 | 0.467 | 0.372 | 0.441 | 0.357 | 0.543 | 0.356 | 0.481 |  | 0.173
NCI-H520 | 1.08 | 0.949 | 0.784 | 0.847 | 0.753 | 0.614 | 0.767 | 0.709 | 0.803 | 0.52 | 0.883 | 0.822 | 0.954 | 0.832 | 0.807 | 0.819 | 0.754 | 0.889 | 0.916 | 0.534
NCI-H596 | 0.527 | 0.562 | 0.475 | 0.523 | 0.558 | 0.95 | 0.95 | 1.02 | 1.01 | 1 | 0.486 | 0.502 | 0.469 | 0.529 | 0.431 | 0.561 | 0.444 | 0.495 | 0.513 | 0.359
NCI-H647 | 1.49 | 1.06 | 1.18 | 0.537 | 0.11 | 1.1 | 1.03 | 0.992 | 0.96 | 0.833 | 1.26 | 1.15 | 1.14 | 1.12 | 1.03 | 0.923 | 0.933 | 0.594 | 0.477 | 0.585
NCI-H650 | 1.43 | 1.11 | 1.18 | 1.04 | 1.55 | 0.77 | 0.661 | 0.826 | 0.783 | 0.668 | 1.16 | 1.17 | 1.23 | 1.34 | 1.23 | 1.35 | 1.17 | 1.21 | 0.852 | 0.398
NCI-H661 | 0.693 | 0.682 | 0.801 | 0.765 | 1.07 | 1.15 | 1.07 | 1 | 0.964 | 1.03 | 0.593 | 0.732 | 0.618 | 1.04 | 0.515 | 0.865 | 0.586 | 0.563 | 0.47 | 0.241
NCI-H727 | 0.629 | 0.559 | 0.593 | 0.676 | 0.621 | 0.973 | 1.06 | 0.862 | 0.643 | 0.759 | 0.5 | 0.587 | 0.598 | 0.675 | 0.528 | 0.662 | 0.644 | 0.594 | 0.366 | 0.308
NCI-H838 | 1.25 | 0.948 | 1.05 | 1.06 | 1.16 | 0.847 | 0.807 | 0.872 | 1.01 | 0.799 | 0.973 | 0.953 | 1 | 1.09 | 0.971 | 1.03 | 0.974 | 1.01 | 1.06 | 0.692
NCI-H1299 | 1.07 | 1.07 | 1.02 | 1.07 | 1.06 | 0.963 | 0.945 | 0.936 | 1 | 0.902 | 1.12 | 1.13 | 1.1 | 1.1 | 1.01 | 0.981 | 1.06 | 0.966 | 0.589 | 0.616
NCI-H1355 | 0.918 | 0.782 | 0.809 | 0.797 | 0.802 | 0.981 | 1.08 | 1.11 | 1.04 | 1.03 | 0.739 | 0.793 | 0.754 | 0.868 | 0.732 | 0.829 | 0.791 | 0.794 | 0.427 | 0.229
NCI-H1437 | 1.32 | 0.938 | 1.11 | 0.974 | 1.27 | 0.897 | 0.943 | 0.868 | 1 | 0.915 | 0.904 | 1.01 | 0.915 | 0.926 | 0.965 | 0.956 | 1.02 | 0.973 | 0.944 | 0.778
NCI-H1563 | 0.987 | 0.982 | 1.06 | 0.949 | 1.07 | 0.977 | 0.917 | 0.859 | 0.893 | 0.612 | 0.859 | 0.912 | 0.893 | 1 | 0.802 | 0.977 | 0.999 | 0.973 | 0.898 | 0.985
NCI-H1651 | 1.01 |  | 0.912 | 0.904 | 1.15 | 0.847 | 0.871 | 0.875 | 0.89 | 0.851 | 0.788 | 0.987 | 0.876 | 0.962 | 0.859 | 0.95 | 0.919 | 1.03 | 0.734 | 0.774
